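These data come from cells grown in 96-well plates and exposed to compound for 48 hours at five concentrations. Abbreviation: GI50, concentration required for 50% inhibition of growth.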 Calls of active or inactive are those of the source. No stated cut-off is given here; in the data, active = GI50 up to about 1.1 µM and inactive = higher.
How the values were obtained:
Assay in all cases: growth of human tumour cells (NCI), 48 h
[1] = system: 786-0
[2] = system: A498
[3] = system: ACHN
[4] = system: BT-549
[5] = system: CAKI-1
[6] = system: CCRF-CEM
[7] = system: COLO 205
[8] = system: DU-145
[9] = system: EKVX
[10] = system: HCC 2998
[11] = system: HCT-116
[12] = system: HCT-15
[13] = system: HL-60
[14] = system: HOP-62
[15] = system: HT-29
[16] = system: Hs-578T
[17] = system: IGROV-1
[18] = system: K562
[19] = system: KM12
[20] = system: LOX IMVI
[21] = system: MCF7
[22] = system: MDA-MB-435
[23] = system: MDA-N
[24] = system: MOLT-4
[25] = system: Malme-3M
[26] = system: NCI-H23
[27] = system: NCI-H460
[28] = system: NCI-H522
[29] = system: NCI/ADR-RES
[30] = system: OVCAR-3
[31] = system: OVCAR-4
[32] = system: OVCAR-5
[33] = system: OVCAR-8
[34] = system: PC-3
[35] = system: RPMI-8226
[36] = system: SF-268
[37] = system: SF-295
[38] = system: SF-539
[39] = system: SK-MEL-28
[40] = system: SK-MEL-2
[41] = system: SK-MEL-5
[42] = system: SK-OV-3
[43] = system: SN12C
[44] = system: SR
[45] = system: SW-620
[46] = system: T47D
[47] = system: U-251
[48] = system: UACC-257
[49] = system: UACC-62
[50] = system: A549
[51] = system: HOP-92
[52] = system: M14
[53] = system: MDA-MB-231
[54] = system: NCI-H226
[55] = system: RXF 393
[56] = system: SNB-19
[57] = system: SNB-75
[58] = system: TK-10
[59] = system: UO-31

Measured: GI50

O=C(Nc1ccc(F)cc1)c1cc2ccc(O)cc2o/c1=N\c1ccccc1F
18.9 µM: [12]
inactive: [1] 24.4 µM | [2] 37.6 µM | [3] 20 µM | [4] 14.8 µM | [5] 33.5 µM | [6] 17 µM | [7] > 100 µM | [8] 34.4 µM | [9] 13.5 µM | [10] 33.7 µM | [11] 24.8 µM | [13] 18.6 µM | [14] 11.5 µM | [15] > 100 µM | [16] 26.8 µM | [17] 10.1 µM | [18] 11.1 µM | [19] 26.2 µM | [20] 19.4 µM | [21] 28.8 µM | [22] 27.9 µM | [23] 34.6 µM | [24] 26.5 µM | [25] 50 µM | [26] 1.62 µM | [27] 18.8 µM | [28] 12.1 µM | [29] 15.6 µM | [30] 27.9 µM | [31] 21.3 µM | [32] 29.1 µM | [33] 13.7 µM | [34] 32.3 µM | [35] 8.04 µM | [36] 29.1 µM | [37] 30.7 µM | [38] 42.7 µM | [39] 32.1 µM | [40] 29.3 µM | [41] 10.7 µM | [42] 12 µM | [43] 51.8 µM | [44] 36.1 µM | [45] 34.2 µM | [46] 14.8 µM | [47] 19.9 µM | [48] 27.6 µM | [49] 22.6 µM

COc1ccc(N2C(=O)CSC2c2cc3cc(Br)ccc3nc2Cl)cc1 (stereo not given)
inactive: [1] > 50 µM | [2] > 50 µM | [50] 48.6 µM | [3] 19 µM | [4] > 50 µM | [5] 27.5 µM | [6] 31.6 µM | [7] > 50 µM | [8] > 50 µM | [9] > 50 µM | [10] > 50 µM | [11] > 50 µM | [13] > 50 µM | [14] > 50 µM | [51] > 50 µM | [15] > 50 µM | [16] > 50 µM | [17] > 50 µM | [18] 14.1 µM | [19] 20.9 µM | [20] 37.6 µM | [52] 38.5 µM | [21] 31.7 µM | [53] > 50 µM | [22] 23.7 µM | [24] 21 µM | [25] > 50 µM | [54] > 50 µM | [26] > 50 µM | [27] 22.1 µM | [28] 27.4 µM | [29] 44.1 µM | [30] > 50 µM | [31] > 50 µM | [32] > 50 µM | [33] > 50 µM | [34] > 50 µM | [35] 41.8 µM | [55] > 50 µM | [36] > 50 µM | [37] 19.9 µM | [38] > 50 µM | [39] > 50 µM | [40] 35.6 µM | [41] 37.4 µM | [42] > 50 µM | [43] > 50 µM | [56] > 50 µM | [57] > 50 µM | [44] 18.7 µM | [45] > 50 µM | [46] 38.3 µM | [58] > 50 µM | [48] 17.9 µM | [49] 10.3 µM | [59] > 50 µM
31.5 µM: [12]

COc1ccc([N+](=O)[O-])cc1[I+]c1cc([N+](=O)[O-])ccc1OC
inactive: [1] > 100 µM | [2] 81.5 µM | [50] 45.8 µM | [3] 74.3 µM | [4] 30.9 µM | [5] 38.6 µM | [6] 25.4 µM | [7] 68.9 µM | [8] > 100 µM | [9] 33.8 µM | [10] 42.2 µM | [11] 89.5 µM | [13] 20.7 µM | [14] > 100 µM | [15] 38 µM | [16] 91.6 µM | [17] 23 µM | [18] 35 µM | [19] 22.7 µM | [20] 29.4 µM | [52] 39.6 µM | [21] 31.9 µM | [53] > 100 µM | [22] 21.3 µM | [25] 4.47 µM | [54] 53.2 µM | [26] 55.1 µM | [27] 22.5 µM | [28] 27 µM | [29] > 100 µM | [30] 54.1 µM | [32] > 100 µM | [33] 73.6 µM | [34] 52 µM | [35] 23.7 µM | [55] 27.7 µM | [36] 25.1 µM | [37] 33.3 µM | [38] 44 µM | [39] 7.64 µM | [40] 27.5 µM | [41] 12.4 µM | [42] 29.4 µM | [43] 43.5 µM | [56] 34.9 µM | [44] 12.3 µM | [45] 45.3 µM | [46] 28.8 µM | [58] 58.6 µM | [47] 16.1 µM | [48] 33.6 µM | [49] 23.2 µM | [59] 60.5 µM
41.1 µM: [12]

— ChEMBL document CHEMBL1201862, “PubChem BioAssay data set” (2004)
